Results as given in patent publication US11578079B2, “SUMO inhibitor compounds and uses thereof” (CITY OF HOPE, priority 2018, dated 2023).

Legend:
c-Myc = c-Myc activity (Table I, biological activities); set-up: key: + (less active); ++ (active); +++ (most active)
SUMO = target: T1, SUMO (Homo sapiens, UniProt Q9UBT2); test: SUMO activity (Table I, biological activities); type: biochemical; set-up: key: + (less active); ++ (active); +++ (most active)
T1 sequence (Q9UBT2 1-640): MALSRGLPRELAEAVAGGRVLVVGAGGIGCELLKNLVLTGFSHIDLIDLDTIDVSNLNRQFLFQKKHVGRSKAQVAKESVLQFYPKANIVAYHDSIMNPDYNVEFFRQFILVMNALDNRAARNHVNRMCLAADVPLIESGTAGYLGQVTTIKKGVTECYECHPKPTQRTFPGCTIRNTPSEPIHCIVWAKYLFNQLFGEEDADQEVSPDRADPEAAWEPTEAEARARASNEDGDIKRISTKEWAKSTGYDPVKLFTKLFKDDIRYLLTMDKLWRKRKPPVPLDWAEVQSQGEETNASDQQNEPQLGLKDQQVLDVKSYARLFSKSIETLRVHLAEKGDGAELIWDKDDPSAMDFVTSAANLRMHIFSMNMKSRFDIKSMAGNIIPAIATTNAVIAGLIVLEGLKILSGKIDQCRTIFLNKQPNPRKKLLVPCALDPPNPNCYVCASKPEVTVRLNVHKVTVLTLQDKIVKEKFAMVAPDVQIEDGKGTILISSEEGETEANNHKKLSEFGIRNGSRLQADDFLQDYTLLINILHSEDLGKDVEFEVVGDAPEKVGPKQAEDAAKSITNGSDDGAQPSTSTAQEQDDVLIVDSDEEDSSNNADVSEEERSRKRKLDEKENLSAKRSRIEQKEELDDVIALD
T1 sequence (Q9UBE0 1-346 partner): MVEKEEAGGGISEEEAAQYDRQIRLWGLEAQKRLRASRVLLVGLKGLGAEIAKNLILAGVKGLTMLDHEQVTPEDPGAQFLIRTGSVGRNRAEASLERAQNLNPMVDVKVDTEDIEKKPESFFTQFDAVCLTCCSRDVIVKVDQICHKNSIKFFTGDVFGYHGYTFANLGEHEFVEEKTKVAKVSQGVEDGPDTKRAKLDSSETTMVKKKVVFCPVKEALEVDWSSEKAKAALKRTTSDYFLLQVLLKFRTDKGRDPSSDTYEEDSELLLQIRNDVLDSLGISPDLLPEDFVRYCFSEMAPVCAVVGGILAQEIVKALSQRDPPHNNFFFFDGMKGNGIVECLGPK

SUMO (SUMO)	Structure (SMILES)	c-Myc (c-Myc)
++	CCOc1cccc(NC(Cc2ccccc2)C23C=CC(O2)C(C(=O)NCc2ccncc2)=C3C(=O)OC)c1 (stereo not drawn) [Compound 254]	+
++	COC(=O)C1=C(C(=O)NC2CCN(C)C2)C2C=CC1(C(Cc1ccccc1)Nc1cc(F)cc(F)c1)O2 (stereo not drawn) [Compound 256]	+
++	COC(=O)C1=C(C(=O)NNc2ccc(F)c(F)c2)C2(C(Cc3ccccc3)Nc3cc(F)cc(F)c3)C=CC1O2 (stereo not drawn) [Compound 315]	+
++	COC(=O)C1=C(C(=O)NCCN2CCC2)C2C=CC1(C(Cc1ccccc1)Nc1ccccc1)O2 (stereo not drawn) [Compound 469]	+
++	COC(=O)C1=C(C(=O)NC2CCN(C)CC2)C2(C(Cc3ccccc3)Nc3cc(F)cc(F)c3)C=CC1O2 (stereo not drawn) [Compound 311]	++
+++	COC(=O)C1=C(C(=O)NCCN(C)C)C2C=CC1(C(Cc1cccc(F)c1)Nc1cc(F)cc(F)c1)O2 (stereo not drawn) [Compound 435]	++
+++	COC(=O)C1=C(C(=O)NC2CCN(C)C2)C2C=CC1(C(Cc1ccccc1)Nc1cc(F)cc(Cl)c1)O2 (stereo not drawn) [Compound 238]	++
++	COC(=O)C1=C(C(=O)OC)C2(C(Cc3ccc(C)cc3)Nc3cc(F)cc(F)c3)C=CC1O2 (stereo not drawn) [Compound 428]	+
+	COCCN1CCC(NC(=O)C2=C(C(=O)OC)C3(C(Cc4ccccc4)Nc4ccccc4)CCC2O3)CC1 (stereo not drawn) [Compound 367]	+
++	COC(=O)C1=C(C(=O)Nc2ccc(C)c(F)c2)C2C=CC1(C(Cc1ccccc1)Nc1cc(F)cc(Cl)c1)O2 (stereo not drawn) [Compound 348]	+
++	COC(=O)C1=C(C(=O)NCCNC(=O)Nc2ccccc2)C2C=CC1(C(Cc1ccccc1)Nc1ccccc1)O2 (stereo not drawn) [Compound 395]	+
++	COC(=O)C1=C(C(N)=O)C2C=CC1(C(Cc1ccccc1)Nc1ccccc1)O2 (stereo not drawn) [Compound 151]	+
++	COC(=O)C1=C(C(=O)NC2CCN(C)CC2)C2C=CC1(C(Cc1ccccc1)Nc1ccc(F)cc1)O2 (stereo not drawn) [Compound 262]	++
++	COC(=O)C1=C(C(=O)Nc2ccccc2OC)C2C=CC1(C(Cc1ccccc1)Nc1ccccc1)O2 (stereo not drawn) [Compound 352]	+
+++	CCOC(=O)C1=C(C(=O)NC2CCN(C)CC2)C2C=CC1(C(Cc1ccccc1)Nc1ccc(F)cc1F)O2 (stereo not drawn) [Compound 329]	++
++	COC(=O)C1=C(C(=O)OC)C2(C(Cc3ccc(F)cc3)Nc3ccccc3)C=CC1O2 (stereo not drawn) [Compound 445]	+
++	CCN(CC)CCNC(=O)C1=C(C(=O)OC)C2(C(Cc3ccccc3)Nc3ccc(F)cc3F)C=CC1O2 (stereo not drawn) [Compound 412]	+
++	COC(=O)C1=C(C(=O)Nc2ccc(C)nc2)C2C=CC1(C(Cc1ccccc1)Nc1ccccc1)O2 (stereo not drawn) [Compound 289]	++
++	COC(=O)C1=C(C(=O)NCCN(C)C)C2(C(Cc3ccccc3)Nc3cc(F)cc(F)c3)C=CC1O2 (stereo not drawn) [Compound 401]	++
+	COC(=O)C1=C(C(N)=O)C2C=CC1(C(Nc1ccccc1)C1CCC1)O2 (stereo not drawn) [Compound 179]	+
+++	COC(=O)C1=C(C(=O)NCCN2CCCC2)C2C=CC1(C(Cc1ccc(C(F)(F)F)cc1)Nc1ccccc1)O2 (stereo not drawn) [Compound 440]	++
+++	COC(=O)C1=C(C(=O)NCCN2CCCC2)C2C=CC1(C(Cc1ccc(C)cc1)Nc1cc(F)cc(F)c1)O2 (stereo not drawn) [Compound 442]	++
++	COC(=O)C1=C(C(=O)Nc2ccccc2)C2C=CC1(C(Cc1ccccc1)Nc1ccccc1)O2 (stereo not drawn) [Compound 163]	+
++	COC(=O)C1=C(C(=O)NCCN2CCOCC2)C2C=CC1(C(Cc1ccccc1)Oc1ccccc1)O2 (stereo not drawn) [Compound 326]	++
+++	COC(=O)C1=C(C(=O)NC2CCN(CCO)CC2)C2C=CC1(C(Cc1ccccc1)Nc1ccccc1)O2 (stereo not drawn) [Compound 279]	++
++	COC(=O)C1=C(C(=O)NCc2ccncc2)C2C=CC1(C(Cc1ccccc1)Nc1cc(F)cc(Cl)c1)O2 (stereo not drawn) [Compound 216]	++

SUMO (SUMO)	Structure (SMILES)	c-Myc (c-Myc)
+++	COC(=O)C1=C(C(=O)Nc2cnc(C)nc2)C2C=CC1(C(Cc1ccccc1)Nc1ccccc1)O2 (stereo not drawn) [Compound 478]	+
+	COC(=O)C1=C(C(=O)Nc2c(C)cccc2C)C2C=CC1(C(Cc1ccccc1)Nc1ccccc1)O2 (stereo not drawn) [Compound 354]	+
++	COC(=O)C1=C(C(=O)NC2CCN(C(=O)NCc3cccnc3)CC2)C2C=CC1(C(Cc1ccccc1)Nc1ccccc1)O2 (stereo not drawn) [Compound 384]	+
++	COC(=O)C1=C(C(=O)OC)C2(C(Cc3ccccc3)Nc3cccc(F)c3)C=CC1O2 (stereo not drawn) [Compound 417]	+
++	CCOC(=O)C1=C(C(F)(F)F)C2C=CC1(C1OCCO1)O2 (stereo not drawn) [Compound 519]	+
++	COC(=O)C1=C(C(=O)NNc2ccccn2)C2C=CC1(C(Cc1ccccc1)Nc1ccccc1)O2 (stereo not drawn) [Compound 221]	+
++	COC(=O)C1=C(C(=O)NCCN(C)C)C2(C)C=CC1(C(Cc1ccccc1)Nc1ccccc1)O2 (stereo not drawn) [Compound 594]	+
++	CCN(CC)CCNC(=O)C1=C(C(=O)OC)C2(C(Cc3ccccc3)Nc3ccc(F)cc3F)C=CC1O2 (stereo not drawn) [Compound 410]	+
++	CCOc1cccc(NC(Cc2ccccc2)C23C=CC(O2)C(C(N)=O)=C3C(=O)OC)c1 (stereo not drawn) [Compound 249]	+
+	CCOC(=O)C1=C(C(=O)N(C)C)C2C=CC1(C(Cc1ccccc1)Nc1ccccc1)O2 (stereo not drawn) [Compound 593]	+
++	COC(=O)C1=C(C(=O)Nc2ccc(OC)cc2)C2C=CC1(C(Nc1ccccc1)C1CCC1)O2 (stereo not drawn) [Compound 178]	+
+	C=CCCC(Nc1ccccc1)C12C=CC(O1)C(C(N)=O)=C2C(=O)OC (stereo not drawn) [Compound 177]	+
++	CCN(CC)CCNC(=O)C1=C(C(=O)OC)C2(C(Cc3ccccc3)Nc3ccc(F)cc3)C=CC1O2 (stereo not drawn) [Compound 375]	+
++	COC(=O)C1=C(C(=O)NC2CCN(C(=O)c3cncnc3)CC2)C2C=CC1(C(Cc1ccccc1)Nc1ccccc1)O2 (stereo not drawn) [Compound 390]	+
+++	CCCCC(Nc1cc(F)cc(F)c1)C12C=CC(O1)C(C(=O)NC1CCN(C)CC1)=C2C(=O)OC (stereo not drawn) [Compound 266]	+
++	COC(=O)C1=C(C(=O)NNc2ccccc2)C2C=CC1(C(Cc1ccccc1)Nc1ccccc1)O2 (stereo not drawn) [Compound 200]	++
+	COC(=O)C1=C(C(=O)Nc2ccc(C)nc2)C2CCC1(C(Cc1ccccc1)Nc1ccccc1)O2 (stereo not drawn) [Compound 349]	+
+	CCOC(=O)C1=C(C(=O)Nc2ccc(CN(C)C)cc2)C2C=CC1(C(Nc1ccccc1)c1ccc(CN3CCOCC3)cc1)O2 (stereo not drawn) [Compound 565]	+
+	COC(=O)C1=C(C(=O)Nc2ccc(N3CCN(C)CC3)cc2)C2CCC1(C(Cc1ccccc1)Nc1ccccc1)O2 (stereo not drawn) [Compound 371]	+
++	COC(=O)C1=C(C(=O)NCCN(C)C)C2C=CC1(C(Cc1ccccc1)Nc1cc(F)cc(F)c1)O2 (stereo not drawn) [Compound 399]	+
++	COC(=O)C1=C(C(=O)NCC2CCCO2)C2C=CC1(C(Cc1ccccc1)Nc1ccccc1)O2 (stereo not drawn) [Compound 405]	+
++	COC(=O)C1=C(C(=O)NCCN(C)C)C2C=CC1(C(Cc1ccccc1)Nc1c(F)cccc1F)O2 (stereo not drawn) [Compound 431]	+
++	COC(=O)C1=C(C(=O)Nc2ccc(CN(C)C)c(F)c2)C2C=CC1(C(Cc1ccccc1)Nc1ccccc1)O2 (stereo not drawn) [Compound 489]	+
+++	COC(=O)C1=C(C(=O)Nc2ccccc2)C2C=CC1(C(Cc1ccccc1)Nc1ccccc1)O2 (stereo not drawn) [Compound 300]	+
++	COC(=O)C1=C(C(=O)NC2CCN(C(C)C)CC2)C2C=CC1(C(Cc1ccccc1)Oc1ccccc1)O2 (stereo not drawn) [Compound 324]	++
